Experiment [1] relates to differentiated mouse 3T3 L1 adipocytes. The experiment can be described thus: [14C]-2-deoxyglucose uptake in differentiated mouse 3T3 L1 adipocytes. The format is cell-based. Particulars: four-parameter fit; read-out: 2DG uptake in 3T3 L1 adipocytes EC50. The procedure: and phosphatase inhibitors for 30 minutes. The lysates were applied to the modified MSD Elisa assays to measure phosphorylation of different tyrosine residues on insulin receptor. Briefly, lysates were added to custom MSD IR plates (MSD cat# N45CA-1). Phosphorylation of tyrosine on IR were measured using antibody against pY960 (rabbit mAb, Cell Applications #CB4378) or pY1345 (rabbit mAb 14A4, Cell Signaling #3026), respectively in combination with SULFO-tag anti rabbit antibody (MSD cat# R32AB). For pY1150, cell lysate was added to MSD high binding plate […]
Signaling #3024). The bound insulin receptor was detected using combination of rabbit anti-insulin receptor b (C-19, Santa Cruz sc-711) and SULFO-tag anti rabbit antibody.
3. IGF-1R binding, cellular proliferation in SaoS2 cells and 2-deoxyglucose (2DG) update in mouse
IGF-1R affinity of IRPAs was assessed in a whole cell binding assay using a cell line stably expressing […]
activities of IRPAs as measured by EdU incorporation to SAOS2/B10 cells using the Click-it EdU (5-Ethynyl-2′-deoxyuridine; ThermoFisher Scientific) assay. To assess IRPA function downstream of the signaling cascade, [14C]-2-deoxyglucose cellular uptake in the differentiated mouse 3T3 L1 adipocytes was measured using standard protocol (3). […]
measured (S4a). Mouse white adipose tissue pAkt levels (S4b) were quantified in the same manner as other tissues […]

The test system of a further experiment is AAV-LIRKO and WT mice. The experiment can be described thus: Glucose lowering in AAV-LIRKO versus WT mice. It is filed as in vivo, mouse. Particulars: glucose lowering efficacy; RHI 30, Levemir 24, IRPA-5 120, IRPA-6 60 nmol/kg. On the procedure:
Male C57BL/6 mice and Sprague-Dawley rats were obtained from Taconic Farms (Germantown, NY, USA). AAV-LIRKO mice were developed by AAV-Cre injection into conditional IR KO mice (B6.129S4(FVB)-Insr^tm1Khn/J from Jackson Laboratory; Fig. S3). To generate streptozotocin (STZ)-induced diabetic mouse, male C57BL/6 mice were treated with a single intraperitoneal (i.p.; 100 mg/kg) injection of STZ (Sigma Chemical, St. Louis, MO, USA).
6. Mouse models and related studies
LIRKO mouse model generation
Jackson Laboratory, #6955). Male mice at 8 weeks of age maintained on chow diet (Teklad 7002) were administered AAV-cre via tail vein injection as doses indicated on Fig. S4. Mice were studied 4 weeks following AAV injection for ITT or put on HFD (Research Diets, D12492) for 4 weeks before glucose lowering studies were executed.
IRPA studies in HFD-STZ mice
HFD-STZ mice were developed as previously described 40 and were groups based on their glucose ranges. Acute glucose lowering efficacy of IRPAs in healthy and HFD -STZ mice were evaluated upon administration of escalating doses of test molecules, which was expressed as area over the curve (AOC) relative to vehicle.
Intact, male Beagle dogs (2-8 years old) were either purchased from Marshall Bioresources or acquired from other in-house programs. […]

Experiment [2] relates to ApoE KO mice. The experiment can be described thus: Body weight in ApoE KO mice, 8 weeks s.c. pump. The format is in vivo, mouse. The following applies: Fig. 6e; one value per animal. On the procedure: (§1) Fig. 6 Beneficial IRPA effects beyond glycemic control. Glucose, body weight and hepatic triglyceride (TG) lowering by IRPA alone or in combination with a GLP-1 analog in mouse studies (a–d). Glucose lowering acutely (a) or during chronic QD dosing (b; 2-h post dose on day 11) in diabetic mice. Body weight (c) and liver triglyceride (d) changes at the end of 14-day QD dosing. […] Data is presented as mean ± SD. N = 8. p value is calculated using one-way ANOVA with Tukey’s multiple comparisons test: b1 < 0.001 vs. vehicle, b2 < 0.001 and b3 = 0.002 for indicated comparisons; c1 = 0.008 and c2 = 0.0001 vs. vehicle, c3 < 0.0001 for indicated comparisons; d1 < 0.001 vs. vehicle. IRPA reduces aortic plaque in ApoE KO mice (e–h). There was no significant body weight or cholesterol change from baseline by RHI or IRPA-3 (e, g). […] Data is presented as mean ± SD. p value is calculated using one-way ANOVA with Tukey’s multiple comparisons test: f1 = 0.0034 and f2 = 0.035 vs. vehicle; h1 = 0.046 vs. vehicle. […] Source data are provided as a Source Data file. […]

Experiment [3] deals with ApoE KO mice. The experiment can be described thus: Aortic plaque in ApoE KO mice (Sudan IV staining, en face aorta). It is filed as in vivo, mouse. The following applies: Fig. 6h; one value per animal. The procedure: as §1
A further experiment concerns SAOS2/B10 cells. The experiment can be described thus: Cellular proliferation, EdU incorporation (Click-it EdU). It is filed as cell-based. The source says: 3. […]
Ethynyl-2′-deoxyuridine; ThermoFisher Scientific) assay. […]

pEC50: −log10 of the molar value. Several values for one entry are separate records, joined by “and”; a condition that tells them apart may be missing. Identical values can stand only once. Like-named read-outs stand apart in the source and are kept apart here.

For the substance “RHI: recombinant human insulin, purchased from commercial sources”, the pEC50 in experiment [1] is 8.18; in the experiment on SAOS2/B10 cells (geometric mean of all independent titrations, EdU incorporation, four-parameter fit, read-out: Cell Proliferation Assay Total Ave EC50), 8.19; in the experiment with SAOS2/B10 cells (titration 1, read-out: Cell Proliferation Assay EC50-1) it was 7.89; in the experiment on SAOS2/B10 cells (titration 2, read-out: Cell Proliferation Assay EC50-2) it was 8.51; in the experiment with SAOS2/B10 cells (titration 3, read-out: Cell Proliferation Assay EC50-3), 8.02; in the experiment on SAOS2/B10 cells (titration 4, read-out: Cell Proliferation Assay EC50-4), 8.02. Also, the pEC50 in the experiment on SAOS2/B10 cells (titration 5, read-out: Cell Proliferation Assay EC50-5) was 8.48. The “AUC reduction in AAV-LIRKO mice compared to WT mice” value in the experiment with AAV-LIRKO and WT mice is reported as 30%. The “Body ewight change (%) from pretreatment” value in the experiment on ApoE KO mice [2] is 13.2% and 5.48% and 7.48% and 4.52% and 8.31% and 18.95% and 5.38% and -7.57% and 17.6% and 5.39% and 19.87% and 3% and 15.56%. Also, the “Aortic plaque area (% to total surface)” value in the experiment on ApoE KO mice [3] was 33.7% and 21.2% and 20.3% and 22.7% and 23.8% and 26.1% and 21.1% and 26.6% and 22.5% and 26.7% and 29.0% and 23.3%.

Source of the values: publication PMC8854621, “Functionally selective signaling and broad metabolic benefits by novel insulin receptor partial agonists” (Nature Communications, 2022).
